Activity calls are given as the source filed them. No cut-off for these calls is given here.
Key:
[1] = species: Danio rerio; assay: Antiangiogenic activity in transgenic zebrafish embryos assessed as suppression of caudal vein plexus formation at 20 uM measured at 30 hrs postfertilization by fluorescence microscopy; assay type: functional, organism-based
[2] = test system: MDA-MB-231; assay: Antitumor activity against luciferase-tagged human MDA-MB-231 cells xenografted in BALB/c mouse assessed as reduction in metastatic nodules in lymph node at 10 mg/kg/3 days, ip measured after 8 weeks by H and E staining based histological analysis; assay type: functional, organism-based
[3] = test system: MDA-MB-231; assay: Inhibition of Sialyltransferase in human MDA-MB-231 cells assessed as reduction in NFkappaB Ser536 phosphorylation level at 10 to 20 uM incubated for 48 hrs by immunoblot analysis; assay type: cell-based; conditions: dose 10-20 µM
[4] = Selectivity ratio of IC50 for of inhibition of rat alpha-2,3-O-ST3GALI to IC50 for inhibition of human alpha-2,6-ST6GAL1
[5] = molecular target: T1, Sialyltransferase ST3Gal-I (Rattus norvegicus) (UniProt Q6H8N0); assay: Inhibition of rat alpha-2,3-O-ST3GALI assessed as reduction in sialylated-product formation at 500 uM using p-nitrophenyl T-antigen and CMP-NeuSAc incubated for 15 mins by reverse-phase HPLC analysis relative to control
T1 sequence (whole entry): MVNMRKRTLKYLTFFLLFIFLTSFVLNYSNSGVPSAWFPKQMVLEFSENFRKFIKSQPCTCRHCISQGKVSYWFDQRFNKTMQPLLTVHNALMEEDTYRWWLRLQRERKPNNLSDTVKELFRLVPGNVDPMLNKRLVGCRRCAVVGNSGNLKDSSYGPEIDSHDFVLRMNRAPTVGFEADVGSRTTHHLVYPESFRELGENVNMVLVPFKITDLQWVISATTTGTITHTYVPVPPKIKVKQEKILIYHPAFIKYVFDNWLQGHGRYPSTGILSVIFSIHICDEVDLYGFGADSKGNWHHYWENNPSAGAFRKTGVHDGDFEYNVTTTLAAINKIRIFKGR

[6] = species: Rattus norvegicus; assay: Selectivity ratio of inhibition of rat alpha-2,3-O-ST3GALI at 500 uM to IC50 for inhibition of rat alpha-2,3-N-ST3GALIII
[7] = test system: MDA-MB-231; assay: Inhibition of Sialyltransferase in human MDA-MB-231 cells assessed as reduction in integrin isoforms expression (alphaV/alpha5/beta1/beta3/beta4/beta5) at 10 to 20 uM incubated for 48 hrs by immunoblot analysis; assay type: cell-based; conditions: dose 10-20 µM
[8] = test system: MDA-MB-231; assay: Antiangiogenesis activity against luciferase-tagged human MDA-MB-231 cells xenografted in BALB/c mouse assessed as reduction in number of vessels surrounding tumor nodules by measuring CD31 expression at 10 mg/kg/3 days, ip measured after 8 weeks by immunostaining; assay type: functional, organism-based
[9] = test system: MDA-MB-231; assay: Antiangiogenesis activity against luciferase-tagged human MDA-MB-231 cells xenografted in BALB/c mouse assessed as reduction in cell proliferation by measuring Ki67 expression at 10 mg/kg/3 days, ip measured after 8 weeks by immunostaining; assay type: functional, organism-based
[10] = test system: MDA-MB-231; assay: Inhibition of Sialyltransferase in human MDA-MB-231 cells assessed as reduction in FAK Tyr925 phosphorylation level at 10 to 20 uM incubated for 48 hrs by immunoblot analysis; assay type: cell-based; conditions: dose 10-20 µM
[11] = test system: MDA-MB-231; assay: Inhibition of Sialyltransferase in human MDA-MB-231 cells assessed as reduction in IkappaB-alpha Ser32 phosphorylation level at 10 to 20 uM incubated for 48 hrs by immunoblot analysis; assay type: cell-based; conditions: dose 10-20 µM
[12] = test system: MDA-MB-231; assay: Inhibition of Sialyltransferase in human MDA-MB-231 cells assessed as reduction in FAK Tyr397 phosphorylation level at 10 to 20 uM incubated for 48 hrs by immunoblot analysis; assay type: cell-based; conditions: dose 10-20 µM
[13] = species: Danio rerio; assay: Antiangiogenic activity in transgenic zebrafish embryos assessed as suppression of intersegmental vessels formation at 20 uM measured at 30 hrs postfertilization by fluorescence microscopy; assay type: functional, organism-based
[14] = test system: MDA-MB-231; assay: Antitumor activity against luciferase-tagged human MDA-MB-231 cells xenografted in BALB/c mouse assessed as reduction in number of metastatic foci in lungs at 10 mg/kg/3 days, ip measured after 8 weeks by histological analysis; assay type: functional, organism-based
[15] = molecular target: T2, CMP-N-acetylneuraminate-beta-1,4-galactoside alpha-2,3-sialyltransferase (Rattus norvegicus, UniProt Q02734); assay: Inhibition of rat alpha-2,3-N-ST3GALIII assessed as reduction in sialylated-product formation using Gal-beta1-4Glc and CMP-NeuSAc incubated for 1.5 hrs by reverse-phase HPLC analysis
T2 sequence (Q02734 whole entry): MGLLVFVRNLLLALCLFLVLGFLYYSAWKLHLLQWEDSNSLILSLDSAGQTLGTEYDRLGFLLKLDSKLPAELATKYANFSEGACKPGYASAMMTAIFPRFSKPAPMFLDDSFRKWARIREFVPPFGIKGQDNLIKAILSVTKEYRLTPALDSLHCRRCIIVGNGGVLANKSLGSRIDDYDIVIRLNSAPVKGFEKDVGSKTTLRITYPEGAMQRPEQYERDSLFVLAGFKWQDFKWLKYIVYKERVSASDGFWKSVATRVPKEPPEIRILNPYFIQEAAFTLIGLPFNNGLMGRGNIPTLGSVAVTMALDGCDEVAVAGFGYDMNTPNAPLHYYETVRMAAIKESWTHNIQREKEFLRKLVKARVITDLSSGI

[16] = test system: MDA-MB-231; assay: Inhibition of Sialyltransferase in human MDA-MB-231 cells assessed as reduction in paxillin Tyr118 phosphorylation level at 10 to 20 uM incubated for 48 hrs by immunoblot analysis; assay type: cell-based; conditions: dose 10-20 µM
[17] = species: Rattus norvegicus; assay: Selectivity ratio of inhibition of rat alpha-2,3-O-ST3GALI at 1000 uM to IC50 for inhibition of rat alpha-2,3-N-ST3GALIII
[18] = test system: MDA-MB-231; assay: Inhibition of Sialyltransferase in human MDA-MB-231 cells assessed as suppression of sialylation of integrin subunit beta1/beta3/beta4/beta5 at 10 to 20 um after 48 hrs by Western blot analysis; assay type: cell-based; conditions: dose 10-20 µM
[19] = test system: MDA-MB-231; assay: Antitumor activity against luciferase-tagged human MDA-MB-231 cells xenografted in BALB/c mouse assessed as induction of delayed lung metastasis at 10 mg/kg/3 days, ip measured after 8 weeks; assay type: functional, organism-based
[20] = test system: MDA-MB-231; assay: Inhibition of Sialyltransferase in human MDA-MB-231 cells assessed as decrease p-talin-1 association with integrins beta1 and beta 3 after 48 hrs by immunofluorescence and coimmunoprecipitation assay; assay type: cell-based
[21] = test system: MDA-MB-231; assay: Inhibition of serum-induced cell migration of human MDA-MB-231 cells at 20 uM incubated for 16 hrs by Boyden chamber assay; assay type: functional, cell-based

Structure (SMILES): C[C@H](CCC(=O)OCCOCCOCCN=[N+]=[N-])[C@H]1CC[C@H]2[C@@H]3CC[C@@H]4C[C@H](OC(=O)[C@H](CC(=O)O)Nc5ccc([N+](=O)[O-])c6nonc56)CC[C@]4(C)[C@H]3CC[C@]12C
- Activity [1]: Active
- Activity [2]: Active
- inhibition [3]: Active
- Ratio IC50 [4]: > 139
- inhibition [5]: 0%
- Selectivity ratio [6]: > 287
- inhibition [7]: Dose-dependent effect
- Activity [8]: Active
- Activity [9]: Active
- inhibition [10]: Dose-dependent effect
- inhibition [11]: Active
- inhibition [12]: Dose-dependent effect
- Activity [13]: Active
- Activity [14]: Active
- IC50 [15]: 1740 nM
- inhibition [16]: Dose-dependent effect
- Selectivity ratio [17]: < 575
- inhibition [18]: Active
- Activity [19]: Active
- inhibition [20]: Dose-dependent effect
- inhibition [21]: Active

Source: ChEMBL document CHEMBL4765481, “Sialyltransferase Inhibitors Suppress Breast Cancer Metastasis” (J Med Chem, 2021)
